Measured values taken from US11498896B2 (The Broad Institute, Inc., priority 2014, dated 2022).

Experiments:
human D2R/β-arrestin [1] = molecular target: T1, human D2R/β-arrestin (Homo sapiens (Human), UniProt P14416); test: Gi/cAMP agonist assay (Lance Ultra cAMP, forskolin); format: cell-based; details: CHO-K1 cells expressing human D2R/β-arrestin; agonist mode, 2.5 μM forskolin
Experimental: Eu-cAMP tracer solution (10 μl, PerkinElmer, 360 μl of Tracer in 17.64 ml kit buffer) and ULight-anti-cAMP solution (10 μl, 120 μL antibody in 17.88 ml kit buffer) was then added to each well.

human D2R/β-arrestin [2] = molecular target: T1, human D2R/β-arrestin; test: cell-based; details: β-arrestin Antagonist, CHO-K1 cells expressing human D2R/β-arrestin; antagonist mode, quinpirole 130 nM
human D2R/β-arrestin [3] = molecular target: T1, human D2R/β-arrestin; test: cell-based; details: cAMP Antagonist, CHO-K1 cells expressing human D2R/β-arrestin; antagonist mode, 2.5 μM forskolin and 2.7 nM quinpirole
Experimental: Cells were prepared for assays by growing cultures for up to 2 weeks (from about 6-20 passages). A vial of frozen cells was thawed in a water bath held at 37° C. The cells were then transferred into a 50 ml tube with 10 ml growth media. The vial was rinsed with growth media and the contents transferred to the 50 ml tube. The 50 ml tube was centrifuged at 1200 rpm for 5 minutes at room temperature. […] When the cells reached about 90% confluence (approximately 3 days between passages), the cells were passaged and used for either the agonist or antagonist assays as described below.
The cells were prepared for Gi/cAMP assays as described above. The assays were performed using a PE Lance Ultra cAMP kit (TRF0263). The cells were grown on 225 mm dishes, then washed once with 1×PBS (Cellgro) before digestion with 2.5 ml 1× Detachment reagent (DRX 92-0009) for about 2 minutes. PBS (20 ml) was then added to the plate, and the cells were transferred to a 50 ml centrifuge tube, and centrifuged at room temperature using BD Dynac III, at 1200 rpm for 5 minutes. […] The plates were then incubated at room temperature for about 30 minutes before addition of Eu-cAMP tracer solution (10 μl, PerkinElmer) and then ULight-anti-cAMP solution (10 μl) to each well.

human D2R/β-arrestin [4] = molecular target: T1, human D2R/β-arrestin; test: β-arrestin agonist assay (PathHunter); format: cell-based; details: CHO-K1 cells expressing human D2R/β-arrestin; agonist mode
Experimental: The detection reagent (9.6 μL, Buffer:Emerald II:Galactor-Star in a 19:5:1 ratio, i.e., 14.06 mL:3.7 mL:0.74 mL=18.5 mL) was then added to the agonist plates.

T1 sequence (P14416 whole entry): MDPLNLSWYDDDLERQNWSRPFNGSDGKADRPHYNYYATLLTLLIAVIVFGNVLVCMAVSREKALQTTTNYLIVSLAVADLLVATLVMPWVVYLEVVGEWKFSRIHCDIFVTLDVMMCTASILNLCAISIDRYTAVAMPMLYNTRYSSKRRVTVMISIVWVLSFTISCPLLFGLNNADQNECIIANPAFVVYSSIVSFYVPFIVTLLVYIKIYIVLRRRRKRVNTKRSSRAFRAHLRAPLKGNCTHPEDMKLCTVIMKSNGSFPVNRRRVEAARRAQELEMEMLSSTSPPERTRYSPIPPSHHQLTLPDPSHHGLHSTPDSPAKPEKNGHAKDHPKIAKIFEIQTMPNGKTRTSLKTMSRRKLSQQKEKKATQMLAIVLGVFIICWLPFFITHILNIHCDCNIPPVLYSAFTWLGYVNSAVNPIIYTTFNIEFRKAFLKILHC

EC50 (human D2R/β-arrestin [1]) | IC50 (human D2R/β-arrestin [2]) | IC50 (human D2R/β-arrestin [3]) | EC50 (human D2R/β-arrestin [4]) | Compound
> 30 µM | < 0.1 µM | < 0.1 µM | > 30 µM | COc1cc2c(cc1O)C1Cc3ccc(O)c(OC)c3CN1CC2 (racemic) [D,L-Stepholidine, reference compound]
0.1 to 1 µM | 10 to 30 µM | 1 to 10 µM | > 30 µM | CNC(=O)C1(C)CCN(CC2COc3ccccc3O2)CC1 (single isomer, unassigned) [Compound 202a, 1-((2,3-dihydrobenzo[b][1,4]dioxin-2-yl)methyl)-N,4-dimethylpiperidine-4-carboxamide]
< 0.1 µM | 0.1 to 1 µM | 1 to 10 µM | > 30 µM | CC1(C(=O)NC2CC2)CCN(CC2COc3ccccc3O2)CC1 (single isomer, unassigned) [Compound 203a, N-cyclopropyl-1-((2,3-dihydrobenzo[b][1,4]dioxin-2-yl)methyl)-4-methylpiperidine-4-carboxamide]
> 30 µM | 10 to 30 µM | 10 to 30 µM | > 30 µM | CC1(C(=O)NC2CC2)CCN(CC2COc3ccccc3O2)CC1 (single isomer, unassigned) [Compound 203b, N-cyclopropyl-1-((2,3-dihydrobenzo[b][1,4]dioxin-2-yl)methyl)-4-methylpiperidine-4-carboxamide]
> 30 µM | 1 to 10 µM | 1 to 10 µM | > 30 µM | CC1(C(=O)Nc2ccccc2)CCN(CC2COc3ccccc3O2)CC1 (single isomer, unassigned) [Compound 204a, 1-((2,3-dihydrobenzo[b][1,4]dioxin-2-yl)methyl)-4-methyl-N-phenylpiperidine-4-carboxamide]
> 30 µM | 1 to 10 µM | 1 to 10 µM | > 30 µM | FC(F)(F)c1ccccc1OCCN1CCC2(CC1)CC2c1ccc(Cl)cc1 (single isomer, unassigned) [Compound 216a, 1-(4-chlorophenyl)-6-(2-(2-(trifluoromethyl)phenoxy)ethyl)-6-azaspiro[2.5]octane]
10 to 30 µM | 10 to 30 µM | > 30 µM | > 30 µM | FC(F)(F)c1ccccc1OCCN1CCC2(CC1)CC2c1ccc(Cl)cc1 (single isomer, unassigned) [Compound 216b, 1-(4-chlorophenyl)-6-(2-(2-(trifluoromethyl)phenoxy)ethyl)-6-azaspiro[2.5]octane]
> 30 µM | 0.1 to 1 µM | 0.1 to 1 µM | > 30 µM | COc1ccccc1OCCN1CCC(C)(Oc2ccc(Cl)cc2)C1 (centres unmarked) [Compound 2, 3-(4-Chlorophenoxy)-1-(2-(2-methoxyphenoxy)ethyl)-3-methyl pyrrolidine]
> 30 µM | 1 to 10 µM | 0.1 to 1 µM | > 30 µM | CC1(Oc2ccc(Cl)cc2)CCN(CCCCOc2ccccc2)C1 (centres unmarked) [Compound 3, 3-(4-chlorophenoxy)-3-methyl-1-(4-phenoxybutyl)pyrrolidine]
> 30 µM | 1 to 10 µM | 0.1 to 1 µM | > 30 µM | CC1(Oc2ccc(Cl)cc2)CCN(CCCOc2ccccc2)C1 (centres unmarked) [Compound 4, 3-(4-chlorophenoxy)-3-methyl-1-(3-phenoxypropyl)pyrrolidine]
> 30 µM | 0.1 to 1 µM | < 0.1 µM | > 30 µM | CC1(Oc2ccc(Cl)cc2)CCN(CCOc2ccccc2Cl)C1 (centres unmarked) [Compound 5, 3-(4-chlorophenoxy)-1-(2-(2-chlorophenoxy)ethyl)-3-methylpyrrolidine]
> 30 µM | 1 to 10 µM | 0.1 to 1 µM | > 30 µM | Cc1ccccc1OCCN1CCC(C)(Oc2ccc(Cl)cc2)C1 (centres unmarked) [Compound 6, 3-(4-chlorophenoxy)-3-methyl-1-(2-(o-tolyloxy)ethyl)pyrrolidine]
> 30 µM | 1 to 10 µM | 0.1 to 1 µM | > 30 µM | CC1(Oc2ccc(Cl)cc2)CCN(CCOc2ccccc2C(F)(F)F)C1 (centres unmarked) [Compound 8, 3-(4-chlorophenoxy)-3-methyl-1-(2-(2-(trifluoromethyl)phenoxy)ethyl) pyrrolidine]
< 0.1 µM | 0.1 to 1 µM | > 30 µM | > 30 µM | CC1(Oc2ccc(Cl)cc2)CCN(CCOc2ccccc2F)C1 (centres unmarked) [Compound 9, 3-(4-chlorophenoxy)-1-(2-(2-fluorophenoxy)ethyl)-3-methylpyrrolidine]
< 0.1 µM | 1 to 10 µM | > 30 µM | > 30 µM | CC1(Oc2ccc(Cl)cc2)CCN(CCOc2cccc(Cl)c2)C1 (centres unmarked) [Compound 10, 3-(4-chlorophenoxy)-1-(2-(3-chlorophenoxy)ethyl)-3-methylpyrrolidine]
< 0.1 µM | 1 to 10 µM | 0.1 to 1 µM | > 30 µM | Cc1cccc(OCCN2CCC(C)(Oc3ccc(Cl)cc3)C2)c1 (centres unmarked) [Compound 11, 3-(4-chlorophenoxy)-3-methyl-1-(2-(m-tolyloxy)ethyl)pyrrolidine]

EC50 (human D2R/β-arrestin [1]) | IC50 (human D2R/β-arrestin [2]) | IC50 (human D2R/β-arrestin [3]) | EC50 (human D2R/β-arrestin [4]) | Compound
< 0.1 µM | > 30 µM | > 30 µM | < 0.1 µM | CC1(Oc2ccc(Cl)cc2)CCN(CCOc2cccnc2)C1 (centres unmarked) [Compound 12, 3-(2-(3-(4-chlorophenoxy)-3-methylpyrrolidin-1-yl)ethoxy)pyridine]
> 30 µM | 1 to 10 µM | 0.1 to 1 µM | > 30 µM | CC1(Oc2ccc(Cl)cc2)CCN(CCOc2cccc(C(F)(F)F)c2)C1 (centres unmarked) [Compound 13, 3-(4-chlorophenoxy)-3-methyl-1-(2-(3-(trifluoromethyl)phenoxy)ethyl) pyrrolidine]
< 0.1 µM | 1 to 10 µM | 0.1 to 1 µM | > 30 µM | CC1(Oc2ccc(Cl)cc2)CCN(CCOc2ccc(F)cc2)C1 (centres unmarked) [Compound 14, 3-(4-chlorophenoxy)-1-(2-(4-fluorophenoxy)ethyl)-3-methylpyrrolidine]
< 0.1 µM | 1 to 10 µM | 1 to 10 µM | > 30 µM | CC1(Oc2ccc(Cl)cc2)CCN(CCOc2ccc(Cl)cc2)C1 (centres unmarked) [Compound 15, 3-(4-chlorophenoxy)-1-(2-(4-chlorophenoxy)ethyl)-3-methylpyrrolidine]
0.1 to 1 µM | 1 to 10 µM | > 30 µM | > 30 µM | Cc1ccc(OCCN2CCC(C)(Oc3ccc(Cl)cc3)C2)cc1 (centres unmarked) [Compound 16, 3-(4-Chlorophenoxy)-3-methyl-1-(2-(p-tolyloxy)ethyl)pyrrolidine]
> 30 µM | 10 to 30 µM | 1 to 10 µM | > 30 µM | CC1(Oc2ccc(Cl)cc2)CCN(CCOc2ccc(C(F)(F)F)cc2)C1 (centres unmarked) [Compound 17, 3-(4-chlorophenoxy)-3-methyl-1-(2-(4-(trifluoromethyl)phenoxy)ethyl) pyrrolidine]
0.1 to 1 µM | 1 to 10 µM | > 30 µM | > 30 µM | CC1(Oc2ccc(Cl)cc2)CCN(CCOc2ccc3ncsc3c2)C1 (centres unmarked) [Compound 18, 6-(2-(3-(4-chlorophenoxy)-3-methylpyrrolidin-1-yl)ethoxy)benzo[d]thiazole]
< 0.1 µM | > 30 µM | > 30 µM | 1 to 10 µM | COc1cccc(OCCN2CCC(C)(Oc3ccc(Cl)cc3)C2)c1 (centres unmarked) [Compound 19, 3-(4-chlorophenoxy)-1-(2-(3-methoxyphenoxy)ethyl)-3-methyl pyrrolidine]
< 0.1 µM | 10 to 30 µM | > 30 µM | > 30 µM | COc1ccc(OCCN2CCC(C)(Oc3ccc(Cl)cc3)C2)cc1 (centres unmarked) [Compound 20, 3-(4-chlorophenoxy)-1-(2-(4-methoxyphenoxy)ethyl)-3-methyl pyrrolidine]
> 30 µM | 1 to 10 µM | 1 to 10 µM | > 30 µM | CC1(Oc2ccc(Cl)cc2)CCN(CCOC2CCCCC2)C1 (centres unmarked) [Compound 21, 3-(4-chlorophenoxy)-1-(2-(cyclohexyloxy)ethyl)-3-methylpyrrolidine]
< 0.1 µM | 1 to 10 µM | 0.1 to 1 µM | > 30 µM | CC1(Oc2ccc(Cl)cc2)CCN(CCOc2ccc(F)cc2F)C1 (centres unmarked) [Compound 22, 3-(4-chlorophenoxy)-1-(2-(2,4-difluorophenoxy)ethyl)-3-methyl pyrrolidine]
< 0.1 µM | 0.1 to 1 µM | > 30 µM | > 30 µM | CC1(Oc2ccc(Cl)cc2)CCN(CCOc2cc(F)ccc2F)C1 (centres unmarked) [Compound 23, 3-(4-chlorophenoxy)-1-(2-(2,5-difluorophenoxy)ethyl)-3-methyl pyrrolidine]
< 0.1 µM | > 30 µM | > 30 µM | < 0.1 µM | CC1(Oc2ccc(Cl)cc2)CCN(CCOc2ccc3cccnc3c2)C1 (centres unmarked) [Compound 24]
> 30 µM | 1 to 10 µM | 1 to 10 µM | > 30 µM | CC1(Oc2ccc(Cl)cc2)CCN(CCOc2ccc3ccc(=O)[nH]c3c2)C1 (centres unmarked) [Compound 25, 7-(2-(3-(4-chlorophenoxy)-3-methylpyrrolidin-1-yl)ethoxy)quinolin-2(1H)-one]
> 30 µM | 1 to 10 µM | 0.1 to 1 µM | > 30 µM | CC1(Oc2ccc(Cl)cc2)CCN(CCCc2ccccc2)C1 (centres unmarked) [Compound 26, 3-(4-chlorophenoxy)-3-methyl-1-(3-phenylpropyl)pyrrolidine]
> 30 µM | 0.1 to 1 µM | < 0.1 µM | > 30 µM | CC1(Oc2ccc(Cl)cc2)CCN(CCCCOc2ccccc2Cl)C1 (centres unmarked) [Compound 28, 3-(4-chlorophenoxy)-1-(4-(2-chlorophenoxy)butyl)-3-methylpyrrolidine]
